For series [1], the target named is Human immunodeficiency virus type 1 reverse transcriptase (Human immunodeficiency virus 1) (UniProt Q72547). Briefly: Inhibition of HIV1 reverse transcriptase using T19-Cy5 labeled 23-mer DNA/T2-TAMRA labeled 63-mer DNA as primer/template assessed as inhibition of dNTP incorporation into primer/template at 1 uM relative to control.
A short description of series [2]: Inhibition of Escherichia coli RNA polymerase.
Series [3] in a line: Cytotoxicity against human HeLa cells infected with HIV1 pseudoparticle expressing Gag, Gag-pol, RRE, and vesicular stomatitis virus-G protein assessed as inhibition of cell viability at 25 uM preincubated with cells for 30 mins followed by pseudoparticle addition measured 24 hrs post infection by MTT assay relative to control. Type of series: cell-based. As to conditions: read-out: INH.

Series [4] concerns Human immunodeficiency virus 1. Nature of the series: Antiviral activity against HIV1 pseudoparticle expressing Gag, Gag-pol, RRE, and vesicular stomatitis virus-G protein assessed as inhibition of pseudoparticles entry into human HeLa cells pretreated for 30 mins followed by pseudoparticle addition measured 24 hrs post infection by luciferase reporter gene assay. Type of series: functional, organism-based.

The nature of series [5]: Cytotoxicity against HEK293 cells. Type of series: cell-based. The following applies: human, read-out: LD50 (the source's name).
Series [6] has as its target Human immunodeficiency virus type 1 reverse transcriptase (Human immunodeficiency virus 1) (UniProt Q72547). Nature of the series: Inhibition of TAMRA-labeled primer/template duplex binding to HIV1 Alexa 488-labeled reverse transcriptase by FRET assay.
Series [7] concerns the target Human immunodeficiency virus type 1 reverse transcriptase (Human immunodeficiency virus 1, UniProt Q72547). Nature of the series: Inhibition of HIV1 reverse transcriptase using T19-Cy5 labeled 23-mer DNA/T2-TAMRA labeled 63-mer DNA as primer/template assessed as inhibition of dNTP incorporation into primer/template.
Series [8] addresses Human immunodeficiency virus type 1 reverse transcriptase (Human immunodeficiency virus 1) (UniProt Q72547). Briefly: Effect on binding orientation of HIV1 Alexa 488-labeled reverse transcriptase to TAMRA-labeled primer/template duplex by FRET assay.
The test system of series [9] is Human immunodeficiency virus 1. Briefly: Binding affinity to bodipy-labeled HIV1 reverse transcriptase p66 W24C/K287C double mutant assessed as induction of p66 thumb and finger domain open conformation at 3 uM by fluorescence spectroscopic analysis.
Another series deals with Staphylococcus aureus. Briefly: Antibacterial activity against Staphylococcus aureus. Type of series: functional.
Series [10] has as its target Human immunodeficiency virus type 1 reverse transcriptase (Human immunodeficiency virus 1) (UniProt Q72547). Nature of the series: Inhibition of HIV1 reverse transcriptase using T19-Cy5 labeled 23-mer DNA/T2-TAMRA labeled 63-mer DNA as primer/template assessed as inhibition of dNTP incorporation into primer/template at 25 uM relative to control.
Series [11] relates to Human immunodeficiency virus 1. Briefly: Antiviral activity against NNRTI resistant HIV1 harboring reverse transcriptase V106I/Y181C/G190A/H221Y mutant assessed as inhibition of viral infection in human TZM-bl cells after 48 hrs by luciferase reporter gene assay. Type of series: functional, organism-based. As to conditions: Human immunodeficiency virus 1, TZM-bl.
Series [12] has as its system Human immunodeficiency virus 1. Nature of the series: Antiviral activity against wild type HIV1 NL4-3. Type of series: functional, organism-based. The following applies: Human immunodeficiency virus 1, NL4-3.
Series [13] deals with Human immunodeficiency virus 1. Briefly: Binding affinity to bodipy-labeled HIV1 reverse transcriptase p66 W24C/K287C double mutant assessed as induction of p66 thumb and finger domain open conformation by measuring increase in bodipy fluorescence at 10 uM by stopped flow kinetic analysis.
Series [14] deals with Human immunodeficiency virus type 1 reverse transcriptase (Human immunodeficiency virus 1) (UniProt Q72547). Briefly: Inhibition of HIV1 reverse transcriptase using T19-Cy5 labeled 23-mer DNA/T2-TAMRA labeled 63-mer DNA as primer/template assessed as inhibition of dNTP incorporation into primer/template at 10 uM relative to control.
A short description of series [15]: Ratio of IC50 for NNRTI resistant HIV1 harboring reverse transcriptase L100I/K103N/H221Y mutant infected in human TZM-bl cells to IC50 for wild type HIV1 NL4-3 infected in human TZM-bl cells. Type of series: functional.
The nature of series [16]: Ratio of IC50 for NNRTI resistant HIV1 harboring reverse transcriptase K103N/V179F/Y181C mutant infected in human TZM-bl cells to IC50 for wild type HIV1 NL4-3 infected in human TZM-bl cells. Type of series: functional.
Series [17] deals with Human immunodeficiency virus 1. Nature of the series: Antiviral activity against wild type HIV1 NL4-3 assessed as inhibition of viral infection in human TZM-bl cells after 48 hrs by luciferase reporter gene assay. Type of series: functional, organism-based. As to conditions: Human immunodeficiency virus 1, NL4-3, TZM-bl.
Series [18] in a line: Ratio of IC50 for NNRTI resistant HIV1 harboring reverse transcriptase A98G/K101E/Y181C/G190A mutant infected in human TZM-bl cells to IC50 for wild type HIV1 NL4-3 infected in human TZM-bl cells. Type of series: functional.
Setting [19] is: Human immunodeficiency virus 1, HeLa, read-out: IC50.

Each structure is given as a SMILES string. In brackets after ≈: the same amount, converted by molar mass. Activity calls are given as the source filed them. The calls are words filed in the database; no cut-off is given here.

`CCN(Cc1ccccc1)C(=O)Nc1scc(-c2ccc(Cl)cc2)c1C(=O)O`: the inhibition in series [1] was 12%. The same compound yielded an IC50 in series [2] of over 100 µM.
Consider `O=C(Nc1ccc(F)cc1)Nc1sc(-c2ccc(Cl)c(Cl)c2)cc1C(=O)O`, for which, in [3], the cytotoxicity at 24 h, 25 µM worked out at 0%. Further, the figures for the IC50 in series [2], in [4] and in series [7] were 14 µM, “Not Active” and 0.7 µM, respectively. Also, the CC50 in series [5] turned out to be 68 µM. Further, the result in [6], in [8] and in series [9] was inactive. In addition, the MIC against Staphylococcus aureus turned out to be 4 mg/L (≈ 9.41 µM).
As for `CCN(Cc1ccccc1)C(=O)Nc1sc(-c2ccc(Cl)cc2)cc1C(=O)O`, the inhibition in series [1] was found to be 12%. The IC50 in series [2] stood at 54 µM.
Take `O=C(NCc1ccccc1)Nc1sc(-c2ccc(Cl)c(Cl)c2)cc1C(=O)O`: the IC50 in series [2] came to 43 µM. Moreover, in series [10], the inhibition was found to be 64%.
As for `Cc1cn([C@H]2C[C@H](N=[N+]=[N-])[C@@H](CO[P@](=O)(O)O[P@](=O)(O)OP(=O)(O)O)O2)c(=O)[nH]c1=O` [ZIDOVUDINE TRIPHOSPHATE], the IC50 in series [7] is 7 µM.
As to `Cc1ccnc2c1NC(=O)c1cccnc1N2C1CC1` [NEVIRAPINE], the IC50 in series [11] was over 200 µM; in series [2], over 200 µM; in [12], 0.1 µM. For the same compound, in [13], the result was Active.
In series [2], `CCN(Cc1ccccc1)C(=O)Nc1cc(-c2ccc(Cl)c(Cl)c2)sc1C(=O)O` had a half-inhibitory concentration (IC50) of 22 µM. The inhibition in [10] worked out at 24%.
With `CC(=O)Nc1ccc(NC(=O)Nc2sc(-c3ccc(Cl)c(Cl)c3)cc2C(=O)O)cc1`, the IC50 in series [2] is 27 µM; in [7] it was 0.6 µM. In addition, the result in series [6], in series [8] and in series [9] was inactive.
Consider `COC(=O)Nc1ccc(NC(=O)Nc2sc(-c3ccc(Cl)c(Cl)c3)cc2C(=O)O)cc1`, for which the cytotoxicity at 24 h, 25 µM in series [3] was 6%. Further, the IC50 in series [2] is 19 µM; in series [4] (setting [19]) it was 30 µM; in series [7], 0.3 µM. The CC50 in series [5] was determined as 86 µM. Besides, the result in series [6], in series [8] and in series [9] was inactive. Besides, the MIC against Staphylococcus aureus was found to be 25 mg/L (≈ 52 µM).
Take `CCN(Cc1ccccc1)C(=O)Nc1c(-c2ccc(Cl)c(Cl)c2)csc1C(=O)O`: in series [14], the inhibition was found to be 4%. In [2], this compound yielded an IC50 of 100 µM.
Consider `CN(C)S(=O)(=O)Nc1ccc(NC(=O)Nc2sc(-c3ccc(Cl)c(Cl)c3)cc2C(=O)O)cc1`, for which the figures for the 50% inhibitory concentration (IC50) in series [2] and in series [7] were 23 µM and 0.6 µM, respectively. Also, the CC50 in series [5] was over 100 µM. Also, the outcome in series [6], in series [8] and in series [9] was inactive. Further, inhibition of growth in the series with Staphylococcus aureus (MIC) required 13 mg/L (≈ 24.6 µM).
Turning to `CCN(Cc1ccccc1)C(=O)Nc1c(-c2ccc(Cl)cc2)csc1C(=O)O`, in series [14], the inhibition came out at 13%. In series [2], this compound showed an IC50 of over 200 µM.
Turning to `COc1ccc(NC(=O)Nc2sc(-c3ccc(Cl)c(Cl)c3)cc2C(=O)O)cc1`, the cytotoxicity at 24 h, 25 µM in [3] was 12%. Also, the figures for the IC50 in series [2], in [4] (setting [19]) and in series [7] were 22 µM, 35 µM and 0.8 µM, respectively. For the same compound, in series [5], the CC50 was found to be 80 µM. Further, the outcome in [6], in [8] and in [9] was inactive. In addition, in the series with Staphylococcus aureus, 8 mg/L (≈ 18.3 µM) was the least that counted as inhibitory (MIC).
Turning to `O=C1Nc2ccc(Cl)cc2[C@@](C#CC2CC2)(C(F)(F)F)O1` [EFAVIRENZ], in [11], the IC50 came to 26 µM.
In the case of `O=C(Nc1ccc(NS(=O)(=O)c2ccccc2)cc1)Nc1sc(-c2ccc(Cl)c(Cl)c2)cc1C(=O)O`, the IC50 in series [11] was over 1.5 µM; in [2], 8 µM; in series [7], 0.9 µM; in series [17] it was 15 µM. Further, the “Ratio IC50” value was over 1.5 in series [15], over 1.5 in [16] and 1 in series [18]. The CC50 in [5] stood at 94 µM. The result in series [6], in series [8] and in series [9] was inactive. Besides, in the series with Staphylococcus aureus, it took 3 mg/L (≈ 5.33 µM) to inhibit growth (MIC).
As for `O=C(Nc1ccccc1)Nc1sc(-c2ccc(Cl)c(Cl)c2)cc1C(=O)O`, in series [3], the cytotoxicity at 24 h, 25 µM was found to be 0%. Moreover, the IC50 in series [11] turned out to be 1 µM; in series [2], 20 µM; in series [4] (setting [19]), 20 µM; in series [7] it was 1.2 µM; in series [17] it was 5 µM. Moreover, the “Ratio IC50” value in series [15] is on record as over 4; in series [16], over 4; in series [18] it was 3. The CC50 in [5] was 61 µM. Besides, the outcome in series [6], in [13], in series [8] and in series [9] was inactive. The same compound displayed an MIC against Staphylococcus aureus of 6 mg/L (≈ 14.7 µM).
In series [2], `O=C(O)c1cc(-c2ccc(Cl)c(Cl)c2)sc1NC(=O)N(Cc1ccccc1)Cc1ccccc1` showed a half-inhibitory concentration (IC50) of 7 µM. The inhibition in series [10] came out at 63%.
On to `CCN(Cc1ccccc1)C(=O)Nc1sc(-c2ccc(Cl)c(Cl)c2)cc1C(=O)O`, for which the cytotoxicity at 24 h, 25 µM in series [3] stood at 23%. Moreover, the values for the IC50 in series [2], in series [4] (setting [19]) and in [7] were 21 µM, 27 µM and 0.9 µM, respectively. In series [5], the CC50 stood at 58 µM. The outcome in series [6], in series [8] and in [9] was inactive. In the series with Staphylococcus aureus, the lowest concentration to inhibit growth (MIC) was 10 mg/L (≈ 22.3 µM).
Consider `O=C(Cn1cncn1)Nc1ccc(NC(=O)Nc2sc(-c3ccc(Cl)c(Cl)c3)cc2C(=O)O)cc1`, for which the figures for the IC50 in [2] and in series [7] were 40 µM and 0.8 µM, respectively. Also, the result in series [6], in [8] and in series [9] was inactive.
With `Cc1cc(/C=C/C#N)cc(C)c1Nc1ccnc(Nc2ccc(C#N)cc2)n1` [RILPIVIRINE], the IC50 in series [11] was determined as 3.5 µM; in series [12], 0.0009 µM. The “Ratio IC50” value worked out at 6.3 in series [15], 2.3 in series [16] and 22 in [18].
In [2], `Nc1ccc(NC(=O)Nc2sc(-c3ccc(Cl)c(Cl)c3)cc2C(=O)O)cc1` gave an IC50 of 53 µM. Moreover, the inhibition in [10] was 64%.
For the compound `CS(=O)(=O)Nc1ccc(NC(=O)Nc2sc(-c3ccc(Cl)c(Cl)c3)cc2C(=O)O)cc1`, the cytotoxicity at 24 h, 25 µM in series [3] was determined as 0%. The IC50 in [11] stood at 1.5 µM; in series [2], 26 µM; in series [4] (setting [19]), 30 µM; in [7] it was 0.1 µM; in series [17] it was 5 µM. In addition, the “Ratio IC50” value in series [15] is over 4; in [16], over 4; in series [18] it was 3.5. Moreover, the CC50 in [5] is over 100 µM. Further, the outcome in series [6], in series [8] and in series [9] was inactive. The MIC in the series on Staphylococcus aureus is 39 mg/L (≈ 77.9 µM).
As to `Cc1cc(C#N)cc(C)c1Oc1nc(Nc2ccc(C#N)cc2)nc(N)c1Br` [ETRAVIRINE], the results for the IC50 in series [11] and in [12] were 6 µM and 0.005 µM, respectively. For the same compound, the “Ratio IC50” value in series [15] worked out at 6.8; in series [16] it was 8.8; in series [18] it was 15.
In the case of `CCN(Cc1ccccc1)C(=O)Nc1cc(-c2ccc(Cl)cc2)sc1C(=O)O`, inhibition in [2] was half-maximal at 75 µM (IC50). Further, the inhibition in [10] is 12%.
With `CCN(Cc1ccccc1)C(=O)Nc1scc(-c2ccc(Cl)c(Cl)c2)c1C(=O)O`, in series [1], the inhibition stood at 12%. This compound also yielded an IC50 in [2] of 57 µM.
